Key:
Type in all cases: cell-based
[1] = test system: sulfate reducing bacteria; assay: Efficacy in inhibiting H2S production from sulfate reducing bacteria; settings: anaerobic conditions
Method: To understand the hydrogen sulfide inhibition efficacy of the N-hydroxycarboxamide compounds of the present invention, several compounds were tested. Some compounds that can be used in this H2S inhibiting composition are disclosed in Table 2. For the testing procedures, the compounds were dissolved in DMSO, resulting in a stock solution of about 8000-100000 ppm, which was subsequently diluted in 96-well plates or 10 mL serum vials containing media and selected culture to give varying concentrations from 0.09 to 1000 ppm of the compounds in final solution for efficacy testing.
Strains of commonly found bacteria were used for testing the efficacy of the compounds, viz. Desulfovibrio alaskensis, Desulfovibrio longus and Desulfovibrio gabonensis. Media for the cultures was also prepared by using a standard method. The cultures were aseptically used and incubated under anaerobic conditions. Two well established methods were used for testing various compounds:
The compounds C1, C12, C14, C15 and C16 were tested individually to understand each of their efficacies in inhibiting the H2S production from sulfate reducing bacteria, under standard temperature and pressure conditions. The efficacy of compounds C14 and C15 against hydrogen sulfide production are disclosed in Example 1, Tables 6 and 7.

[2] = test system: Escherichia coli 8739; assay: Log (Growth) efficacy in aerobic conditions, non-SRB bacteria
Method: (§1) 24-hour cultures were made of ATCC Escherichia coli 8739, Pseudomonas aeruginosa 15442, Enterobacter aerogenes 13048, and Klebsiella pneumoniae 13883. The cultures were prepared by taking a loop of a pure bacterial colony and inoculating 10 mL of TSB. These were grown for 24 hours at 30° C.
(§2) Following the 24-hour incubation, 600 microliters (μL) were taken from each culture and optical density (OD) was measured using a Thermofisher Spectronic 200 Spectrophotometer at 600 nm. Each culture was diluted to 0.05 OD600 in fresh Phosphate Buffered Saline (PBS). Using these cultures, two deep well plates were prepared. Edge wells were not used due to their inherent variability and evaporation of the media. Each of the components were added at their respective concentrations for a final volume of […] per well. In Table 8, the concentrations of the compound C1 used for the experiments are listed. Each experiment was done with at least three replicates for different treatments and non-treatment controls. Plates were then sealed with a titer-top and incubated in an incubator at 30° C.
(§3) Enumerations were done at each time point, which included 0 hour, 1 hour, 4 hours and 24 hours. Enumeration plates were made to determine the log growth in each dosed sample. For this process, enumeration plates were prepared by adding 180 μL fresh TSB. 20 μL was taken from each well of the challenge plates and transferred to the enumeration plates using a 20-200 μL multichannel pipette. Enumeration plates were mixed three times using the multichannel pipette and serial diluted down the plate tenfold (20 μL into 180 μL). This serial dilution process was repeated for all challenge plate rows giving a total of 6 enumeration plates. These enumeration plates were read after 24-hours and by counting the number of turbid wells in a row.

[3] = test system: Klebsiella pneumoniae 13883; assay: as above
Method: as §1, §2, §3

[4] = test system: Pseudomonas aeruginosa 15442; assay: as above
Method: as §1, §2, §3

[5] = test system: Enterobacter aerogenes 13048; assay: as above
Method: as §1, §2, §3

[6] = test system: various microorganism strains; assay: Comparative testing of C1 in aerobic and anaerobic conditions; settings: Examples 2 and 3
Excerpt: Therefore, to further analyze the efficacy of compound C1, comparative testing was done in both aerobic and anaerobic conditions using additional bacteria cultures. For aerobic conditions testing, the following strains were used: Escherichia coli, Pseudomonas aeruginosa, Enterobacter aerogenes, and Klebsiella pneumoniae. For anaerobic testing, the following strains were used: Klebsiella pneumoniae, Enterobacter aerogenes, Escherichia coli, and Enterococcus faecalis.

O=C(CN1C(=O)c2cccc3cccc(c23)C1=O)NO [C1]
efficacy for inhibiting hydrogen sulfide production [1]: highest efficacy
Log (Growth) ([2]; 0 hours, 6.25 PPM): 7.000
Log (Growth) ([2]; 0 hours, 12.5 PPM): 6.667
Log (Growth) ([2]; 0 hours, 25 PPM): 7.000
Log (Growth) ([2]; 0 hours, 50 PPM): 7.333
Log (Growth) ([2]; 0 hours, 100 PPM): 7.000
Log (Growth) ([2]; 0 hours, 200 PPM): 7.000
Log (Growth) ([2]; 1 hour, 6.25 PPM): 7.000
Log (Growth) ([2]; 1 hour, 12.5 PPM): 8.000
Log (Growth) ([2]; 1 hour, 25 PPM): 7.333
Log (Growth) ([2]; 1 hour, 50 PPM): 6.333
Log (Growth) ([2]; 1 hour, 100 PPM): 6.333
Log (Growth) ([2]; 1 hour, 200 PPM): 6.333
Log (Growth) ([2]; 4 hours, 6.25 PPM): 7.000
Log (Growth) ([2]; 4 hours, 12.5 PPM): 7.333
Log (Growth) ([2]; 4 hours, 25 PPM): 7.000
Log (Growth) ([2]; 4 hours, 50 PPM): 6.667
Log (Growth) ([2]; 4 hours, 100 PPM): 7.000
Log (Growth) ([2]; 4 hours, 200 PPM): 6.667
Log (Growth) ([2]; 24 hours, 6.25 PPM): 6.333
Log (Growth) ([2]; 24 hours, 12.5 PPM): 7.333
Log (Growth) ([2]; 24 hours, 25 PPM): 6.667
Log (Growth) ([2]; 24 hours, 50 PPM): 7.000
Log (Growth) ([2]; 24 hours, 100 PPM): 6.667
Log (Growth) ([2]; 24 hours, 200 PPM): 7.000
Log (Growth) ([3]; 0 hours, 6.25 PPM): 7.667
Log (Growth) ([3]; 0 hours, 12.5 PPM): 6.333
Log (Growth) ([3]; 0 hours, 25 PPM): 6.667
Log (Growth) ([3]; 0 hours, 50 PPM): 6.667
Log (Growth) ([3]; 0 hours, 100 PPM): 6.667
Log (Growth) ([3]; 0 hours, 200 PPM): 6.333
Log (Growth) ([3]; 1 hour, 6.25 PPM): 6.333
Log (Growth) ([3]; 1 hour, 12.5 PPM): 8.000
Log (Growth) ([3]; 1 hour, 25 PPM): 6.333
Log (Growth) ([3]; 1 hour, 50 PPM): 6.000
Log (Growth) ([3]; 1 hour, 100 PPM): 7.333
Log (Growth) ([3]; 1 hour, 200 PPM): 8.000
Log (Growth) ([3]; 4 hours, 6.25 PPM): 7.667
Log (Growth) ([3]; 4 hours, 12.5 PPM): 6.667
Log (Growth) ([3]; 4 hours, 25 PPM): 6.667
Log (Growth) ([3]; 4 hours, 50 PPM): 6.667
Log (Growth) ([3]; 4 hours, 100 PPM): 7.000
Log (Growth) ([3]; 4 hours, 200 PPM): 7.000
Log (Growth) ([3]; 24 hours, 6.25 PPM): 7.333
Log (Growth) ([3]; 24 hours, 12.5 PPM): 7.333
Log (Growth) ([3]; 24 hours, 25 PPM): 6.000
Log (Growth) ([3]; 24 hours, 50 PPM): 6.000
Log (Growth) ([3]; 24 hours, 100 PPM): 7.000
Log (Growth) ([3]; 24 hours, 200 PPM): 7.000
Log (Growth) ([4]; 0 hours, 6.25 PPM): 7.333
Log (Growth) ([4]; 0 hours, 12.5 PPM): 7.667
Log (Growth) ([4]; 0 hours, 25 PPM): 7.333
Log (Growth) ([4]; 0 hours, 50 PPM): 7.667
Log (Growth) ([4]; 0 hours, 100 PPM): 8.000
Log (Growth) ([4]; 0 hours, 200 PPM): 7.667
Log (Growth) ([4]; 1 hour, 6.25 PPM): 7.000
Log (Growth) ([4]; 1 hour, 12.5 PPM): 8.000
Log (Growth) ([4]; 1 hour, 25 PPM): 7.667
Log (Growth) ([4]; 1 hour, 50 PPM): 7.333
Log (Growth) ([4]; 1 hour, 100 PPM): 8.000
Log (Growth) ([4]; 1 hour, 200 PPM): 7.000
Log (Growth) ([4]; 4 hours, 6.25 PPM): 7.000
Log (Growth) ([4]; 4 hours, 12.5 PPM): 8.000
Log (Growth) ([4]; 4 hours, 25 PPM): 7.000
Log (Growth) ([4]; 4 hours, 50 PPM): 7.000
Log (Growth) ([4]; 4 hours, 100 PPM): 7.667
Log (Growth) ([4]; 4 hours, 200 PPM): 7.000
Log (Growth) ([4]; 24 hours, 6.25 PPM): 7.333
Log (Growth) ([4]; 24 hours, 12.5 PPM): 7.000
Log (Growth) ([4]; 24 hours, 25 PPM): 7.333
Log (Growth) ([4]; 24 hours, 50 PPM): 7.667
Log (Growth) ([4]; 24 hours, 100 PPM): 8.000
Log (Growth) ([4]; 24 hours, 200 PPM): 7.667
Log (Growth) ([5]; 0 hours, 6.25 PPM): 7.667
Log (Growth) ([5]; 0 hours, 12.5 PPM): 8.000
Log (Growth) ([5]; 0 hours, 25 PPM): 7.333
Log (Growth) ([5]; 0 hours, 50 PPM): 7.667
Log (Growth) ([5]; 0 hours, 100 PPM): 7.000
Log (Growth) ([5]; 0 hours, 200 PPM): 7.667
Log (Growth) ([5]; 1 hour, 6.25 PPM): 7.667
Log (Growth) ([5]; 1 hour, 12.5 PPM): 8.000
Log (Growth) ([5]; 1 hour, 25 PPM): 7.333
Log (Growth) ([5]; 1 hour, 50 PPM): 7.000
Log (Growth) ([5]; 1 hour, 100 PPM): 7.333
Log (Growth) ([5]; 1 hour, 200 PPM): 8.000
Log (Growth) ([5]; 4 hours, 6.25 PPM): 7.667
Log (Growth) ([5]; 4 hours, 12.5 PPM): 7.667
Log (Growth) ([5]; 4 hours, 25 PPM): 7.667
Log (Growth) ([5]; 4 hours, 50 PPM): 7.333
Log (Growth) ([5]; 4 hours, 100 PPM): 8.000
Log (Growth) ([5]; 4 hours, 200 PPM): 7.000
Log (Growth) ([5]; 24 hours, 6.25 PPM): 6.667
Log (Growth) ([5]; 24 hours, 12.5 PPM): 7.333
Log (Growth) ([5]; 24 hours, 25 PPM): 7.000
Log (Growth) ([5]; 24 hours, 50 PPM): 6.667
Log (Growth) ([5]; 24 hours, 100 PPM): 7.000
Log (Growth) ([5]; 24 hours, 200 PPM): 7.333
inhibition under anaerobic as opposed to aerobic conditions [6]: preferentially inhibited hydrogen sulfide production under anaerobic conditions
killing of the various microorganism strains [6]: completely killing

Source: patent US20230183640A1, “METABOLIC INHIBITORS WITH EFFICACY FOR INHIBITING SULFIDE PRODUCTION IN HARSH ENVIRONMENTS” (MC (US) 3 LLC, priority 2020, published 2023)
